From patent publication US4971964A, “Pyridine derivatives” (priority 1988, dated 1990)

Key:
[1] = tested on: collagen-induced ischemic ECG alterations in spontaneous hypertensive rats (SHR); assay: Test On Inhibition of Collagen-Induced Ischemic Alterations of Electrocardiogram; format: in vivo; conditions: 1 mg/kg, iv; for Change of ECG (score 0-3): mean ± standard error, N = 5 to 6
Experimental: Spontaneous hypertensive rats (SHR) (male; 25-30-week-old; available from Hoshino Jikken Dobutsu) were intraperitoneally anesthesized with sodium pentobarbital (60 mg/kg). Each animal was fixed on its back, a venous cannula was inserted into the left jugular vein, and electrocardiograms (ECG) in extremity leads II were taken. A solvent alone (physiological saline containing 0.05N sodium hydroxide) or the test compound (I-12Z or I-13E) dissolved in the same solvent was intravenously administered in an amount of 0.1 ml per 100 g of body weight. Three minutes later, 4.5 mg/kg of collagen III originating from the bovine skin was intravenously injected, and the changes of the ECG were observed over 10 minutes. The ischemic ECG alterations after the intravenous injection of collagen were scored based on the following system according to the method of Matsumura et al., Folia Pharmacol., Japon, and the significance of difference in scores of the control group receiving the solvent alone and the test group was examined by the U-test of Mann-Whitney.
0 . . . Changes of 0.05 mV or less in the S-T segment or the T wave
1 . . . Changes between 0.05 and 0.1 mV in the S-T segment or the T wave
2 . . . Changes of 0.1 mV or more in the S-T segment or the T wave
3 . . . Arrythmia or cardiac arrest

[2] = biological target: T1, thromboxane synthase (TXA2 synthase), bovine platelet microsome (Bos taurus, UniProt Q2KIG5); assay: Test on Inhibition of TXA2 Biosynthesis (bovine platelet microsome, TXB2 by radioimmunoassay); format: biochemical; conditions: bovine platelet microsome, pH 7.4, prostaglandin H2 substrate
T1 construct: bovine platelet microsome; from tissue; host or cells: bovine platelets (microsome)
T1 sequence (Q2KIG5 1-533): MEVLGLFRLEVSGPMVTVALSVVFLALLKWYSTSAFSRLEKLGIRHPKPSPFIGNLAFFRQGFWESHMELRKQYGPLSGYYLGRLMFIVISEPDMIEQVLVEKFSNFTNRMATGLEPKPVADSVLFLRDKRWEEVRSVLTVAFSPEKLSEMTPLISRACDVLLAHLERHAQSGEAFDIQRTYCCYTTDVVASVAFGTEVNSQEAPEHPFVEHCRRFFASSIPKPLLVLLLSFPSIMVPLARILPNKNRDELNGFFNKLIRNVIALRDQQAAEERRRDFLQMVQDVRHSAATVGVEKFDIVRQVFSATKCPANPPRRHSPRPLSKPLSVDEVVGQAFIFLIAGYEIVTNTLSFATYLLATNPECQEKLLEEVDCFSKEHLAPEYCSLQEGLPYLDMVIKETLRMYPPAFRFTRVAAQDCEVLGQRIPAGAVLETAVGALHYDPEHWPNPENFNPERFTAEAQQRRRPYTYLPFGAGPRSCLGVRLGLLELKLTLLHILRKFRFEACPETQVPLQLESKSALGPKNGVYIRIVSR
Experimental: A mixture of 70 μl of bovine platelet microsome [protein: 40 μg; 100 mM tris-HCl buffer (pH=7.4)] and 10 μl of a test compound solution (100 mM tris-HCl buffer containing 10% methanol) was allowed to stand at 0° C. for 5 minutes, and 20 μl of a prostaglandin H2 solution (100 mM tris-HCl buffer supplemented with acetone containing 0.1 nmol of prostaglandin H2) was added thereto as a substrate.
The amount of thromboxane B2 (TXB2) (stable degradation product of TXA2) produced in the system was determined by radioimmunoassay [F. A. Fitzpatrick et al., Methods in Enzymology, Vol. 86, p.286 (1982)].
Inhibition of TXB2 synthesis was evaluated by IC50 (50% inhibitory concentration) or percent inhibition as calculated from equation described below, and the results obtained are shown in Table 1. [formula]

[3] = tested on: silver nitrate-induced arteriothromboembolia in male Wistar-Shizuoka rats; assay: Test on Inhibition of Silver Nitrate-Induced Arteriothromboembolia in Rats; format: in vivo; conditions: for Number of Obstruction Case/Number of Experiments: control 23/26; for Percent Obstruction: control 88%; for percent obstruction vs control (in words): I-12Z 0.3, 1.0, or 3.0 mg/kg, I-13E 3 mg/kg
Description: Male Wistar -Shizuoka rats weighing 270±20 g were anesthetized with urethane (1.5 g/kg) intraperitoneally. Each animal was fixed on its back, and a venous cannula and an arterial cannula were inserted into the left carotid vein and the left femoral artery, respectively. An abdominal incision was made, the intestinal tract was put aside so that the descending abdominal aorta could be seen, the surrounding connective tissues were removed, the descending aorta was detached to a length of about 1 cm, and the detached descending aorta was put on a globe of 8 cm in diameter. A solvent (0.1 ml; physiological saline containing 0.05N sodium hydroxide) or a drug solution (0.1 ml) in the solvent was injected via the cannulated carotid vein per 100 g of body weight. Three minutes later, a 30% silver nitrate aqueous solution was dropped on the detached descending abdominal aorta. Five minutes later, the globe was removed, and the affected site was washed three times with physiological saline to stop the reaction. After the elapse of 30 minutes from the stopping of the reaction, the blood pressure of the femoral artery was measured, and the pressure fall was taken as an indication of obstruction of the descending arterial. Significance of the difference in degree of the obstruction between the control group (only the solvent was administered) and the test group was assayed by X^2 -assay.

dd male mice = assay: Acute Toxicity Test (minimum lethal dose, MLD); format: in vivo
Experimental: A test compound was given to dd male mice weighing 20±1 g (3 mice per group) per os. (p.o.; 300 mg/kg) or intraperitoneally (i.p.; 100 mg/kg). The mortality after 7 days from the administration was considered to determine the minimum lethal dose (MLD).

[4] = 0.5 min after collagen injection
[5] = 10 min after collagen injection
[6] = dd male mice, mortality after 7 days

| SMILES | ECG changes vs control (in words) [1] | Change of ECG (score 0-3) [1, 4] | Change of ECG (score 0-3) ([1]; 1 min after collagen injection) | Change of ECG (score 0-3) ([1]; 2 min after collagen injection) | Change of ECG (score 0-3) ([1]; 3 min after collagen injection) | Change of ECG (score 0-3) ([1]; 4 min after collagen injection) | Change of ECG (score 0-3) ([1]; 5 min after collagen injection) | Change of ECG (score 0-3) ([1]; 6 min after collagen injection) | Change of ECG (score 0-3) ([1]; 7 min after collagen injection) | Change of ECG (score 0-3) ([1]; 8 min after collagen injection) | Change of ECG (score 0-3) ([1]; 9 min after collagen injection) | Change of ECG (score 0-3) [1, 5] | IC50 [2] [nM] | Number of Obstruction Case/Number of Experiments ([3]; 1.0 mg/kg i.v.) | Percent Obstruction ([3]; 1.0 mg/kg i.v.) [%] | Number of Obstruction Case/Number of Experiments ([3]; 3.0 mg/kg i.v.) | Percent Obstruction ([3]; 3.0 mg/kg i.v.) [%] | percent obstruction vs control (in words) ([3]; i.v.) | Acute Toxicity (MLD) ip (dd male mice; [6]) [mg/kg] | Acute Toxicity (MLD) po (dd male mice; [6]) [mg/kg] | other results |
| --- | --- | --- | --- | --- | --- | --- | --- | --- | --- | --- | --- | --- | --- | --- | --- | --- | --- | --- | --- | --- | --- |
| COC1=Nc2ccncc2/C(=C/CCCCC(=O)O)c2ccccc21 [Compound I-13E, (E)-11-(5-Carboxypentylidene)-6-methoxy-11H-pyrido[4,3-c][2]benzazepin] | significantly smaller than those in the control groups | 0 ± 0 | 0.2 ± 0.2 | 0.2 ± 0.2 | 0.2 ± 0.2 | 0.6 ± 0.4 | 0.2 ± 0.2 | 0.4 ± 0.2 | 0.4 ± 0.2 | 0.4 ± 0.2 | 0.4 ± 0.2 | 0.2 ± 0.2 | 8.4 | 3/4 | 75 | 1/5 | 20 | significantly lower than that of the control group | > 100 | – | Acute Toxicity (MLD) po (dd male mice; mouse, in vivo, 10080 min): > 300 mg/kg |
| CN1C(=O)c2ccncc2/C(=C\CCCCC(=O)O)c2ccccc21 [Compound I-12Z, (Z)-11-(5-carboxypentylidene)-6-methyl-5,11-dihydropyrido[4,3-c][1]benzazepin-5(6H)-one] | significantly smaller than those in the control groups | 0.8 ± 0.5 | 0.5 ± 0.2 | 1.0 ± 0.4 | 0.8 ± 0.3 | 0.7 ± 0.2 | 0.2 ± 0.2 | 0.3 ± 0.2 | 0.5 ± 0.2 | 0.5 ± 0.2 | 0.4 ± 0.2 | 0.3 ± 0.2 | 34 | 0/5 | 0 | 1/5 | 20 | significantly lower than that of the control group | > 100 | > 300 | Number of Obstruction Case/Number of Experiments ([3]; 0.1 mg/kg i.v.): 4/6; Percent Obstruction ([3]; 0.1 mg/kg i.v.): 67%; Number of Obstruction Case/Number of Experiments ([3]; 0.3 mg/kg i.v.): 1/5; Percent Obstruction ([3]; 0.3 mg/kg i.v.): 20%; inhibition of obstruction vs comparative drugs CV-4151 and OKY-1581 (in words) ([3]; i.v.): inhibition of obstruction at lower doses as compared with the comparative drugs, CV-4151 and OKY-1581 |
| O=C(O)CCCC/C=C1\c2cnccc2NC(=O)c2ccccc21 [Compound I-14Z, (Z)-11-(5-Carboxypentylidene)-6,11-dihydropyrido[4,3-c][2]benzazepin-6(5H)-one] | – | – | – | – | – | – | – | – | – | – | – | – | 451 | – | – | – | – | – | > 100 | > 300 | – |
| CN1C(=O)c2ccncc2/C(=C/CCCCC(=O)O)c2ccccc21 [Compound I-12E, (E)-11-(5-Carboxypentylidene)-6-methyl-5,11-dihydropyrido[4,3-c][1]benzazepin-5(6H)-one] | – | – | – | – | – | – | – | – | – | – | – | – | 20 | – | – | – | – | – | > 100 | > 300 | – |
| O=C(O)CCCCC=C1c2cc(Br)ccc2NC(=O)c2ccncc21 [Compound I-1, 9-Bromo-11-(5-carboxypentylidene)-5,11-dihydropyrido-[4,3-c][1]benzazepin-5(6H)-one] | – | – | – | – | – | – | – | – | – | – | – | – | 32 | – | – | – | – | – | > 100 | > 300 | – |
